Results taken from US20250302748A1, “METHOD FOR ENHANCING THE EFFICIENCY OF DRUG LOADING INTO EXTRACELLULAR VESICLES AND MEDICINAL PRODUCTS THEREOF” (Shine-On BioMedical CO., LTD., priority 2024, published 2025).
Counter-ions that a name gives are not always drawn.

How the values were obtained:
[1] = system: breast cancer cells (MDA-MB-231); assay: Orthotopic breast cancer animal model, IVIS luminescence; format: in vivo, mice; settings: day 49, two weeks after final administration; tail vein injections for six weeks; luminescence converted into tumor volume
Excerpt: Referring to FIG. 9C, a breast cancer animal model was applied to evaluate the efficacy and biocompatibility of exosome 10 loaded with the target drug. In this experiment, the breast cancer animal model was constructed by injecting the breast cancer cells (MDA-MB-231) orthotopically into the mammary fat pad of the mice and then culturing the breast cancer cells into tumor. The mice were divided into drug treatment groups 1 to 3 and control group 1. The breast cancer animal model in drug treatment groups 1 to 3 were received the target drug directly (Dox-HCl), the liposome injection loaded with the target drug Dox-HCl (Dox@Lipo), and the exosomes 10 loaded with the target drug Dox-HCl (Dox@EXO) respectively; the control group 1 is the group treated with a placebo (PBS) (Ctrl).
Each group (groups 1-3 and control group 1) of the breast cancer animal model described above was received tail vein injections continuously for six weeks administration following the injection of breast cancer cells (MDA-MB-231). Tumor development was monitored and imaged using an in vivo imaging system (IVIS Imaging System), which measured tumor progression based on a luminescence signal of the tumor.

[2] = Safety study with serum biochemical analysis after third weekly administration; format: in vivo, Immunocompetent mice
Excerpt: Furthermore, to confirm that exosome 10 retains its biocompatibility after loading the target drug and is safe for in vivo use, please refer to Table 5, an animal model is applied to evaluate the safety. Immunocompetent mice were divided into control group (Control), vehicle control group (Vehicle control), drug treatment group (Dox), and exosome treatment groups 1-3 (Dox@EXO 1-3). The groups above were weekly administered Lactated Ringer's solution, the exosomes 10, the target drug (Doxorubicin, Dox-HCl), and the exosomes 10 loaded with the target drug Dox-HCl (Dox@EXO) in concentrations of 2 mg/kg, 6 mg/kg, and 12 mg/kg respectively. After receiving the third administration, blood samples were collected for serum biochemical analysis to monitor organ function.

[3] = 12 mg/kg weekly, after third administration, serum

COc1cccc2c1C(=O)c1c(O)c3c(c(O)c1C2=O)C[C@@](O)(C(=O)CO)C[C@@H]3O[C@H]1C[C@H](N)[C@H](O)[C@H](C)O1 [Dox-HCl, Doxorubicin hydrochloride]
Inhibition rate of tumor growth [1]: 73.8% | ALB (Albumin) [2, 3]: 2.68 g/dL | ALP (Alkaline Phosphatase) [2, 3]: 182.52 U/L | ALT [2, 3]: 29.52 U/L | AMY (Amylase) [2, 3]: 3424.8 U/L | AST [2, 3]: 76.88 U/L | CK (Creatine kinase) [2, 3]: 236.06 U/L | LDH (Lactate Dehydrogenase) [2, 3]: 648.28 U/L | Difference in serum biochemical parameters versus control group (One-way ANOVA) ([2]; Dox 12 mg/kg, Dox@EXO 2, 6 and 12 mg/kg): significant differences in liver function markers such as albumin (ALB) and alkaline phosphatase (ALP)
